Laboratory results reported in article PMC9554980, “Antimalarial potential of compounds isolated from Mammea siamensis T. Anders. flowers: in vitro and molecular docking studies” (BMC Complementary Medicine and Therapies, 2022).
Read-outs that look alike come from different tables or passages of the source.

Assays:
Format in all cases: cell-based
[1] = tested on: chloroquine-resistant P. falciparum (K1) strain; experiment: In vitro antimalarial activity, pLDH assay; settings: Plasmodium falciparum
Experimental: P. falciparum was cultured according to the method of Trager and Jensen with some modifications. The parasites were cultured in noninfected human red blood cells (2% hematocrit) using RPMI 1640 medium that was supplemented with 0.5% Albumax II, 10 µg/ml hypoxanthine, 2.5 µg/ml gentamicin, 4.8 mg/ml HEPES and buffered with 2 mg/ml sodium bicarbonate as described previously in our previous study. All the chemicals and reagents used for culturing were purchased from Sigma–Aldrich, New Delhi, India and Gibco, Waltham, MA USA. The culture was maintained at 37 °C in a CO2 incubator. The culture medium was changed, and Giemsa-stained slides were prepared daily to monitor parasitemia.
The in vitro antimalarial activity of the isolated compounds was assessed on cultured P. falciparum using the Plasmodium lactate dehydrogenase (pLDH) assay described by Makler with some modifications. Briefly, the compounds were individually dissolved in DMSO to obtain a stock solution of 1 mM, and the solution was then diluted to a final working concentration of 0.78–100 µM. […] Parasitized red blood cells (2% hematocrit, 2% parasitemia) were aliquoted into a 96-well cell culture plate, and then the infected red cells were exposed. The tested compound was added to 96-well plates and incubated at 37 °C for 72 h in a CO2 incubator. At the end of incubation, the plates were subjected to three freeze/thaw cycles (frozen at -20 °C and thawed at 37 °C) for complete hemolysis. The lysed cells were transferred to a new 96-well plate that contained a mixture of 100 µl of Malstat reagent and 20 µl of nitroblue tetrazolium/phenazine ethosulfate solution (Calbiochem®, Sigma–Aldrich, New Delhi, India) and were incubated for 1 h in the dark. The experiments were performed in triplicate. These solutions were used to determine the activity of the lactate dehydrogenase (LDH) enzyme in the cultures. When LDH was present, a purple product was formed, and the optical density was measured using a microplate reader at a wavelength of 650 nm. The concentrations at which 50% inhibition of parasite growth (IC50) was calculated using a nonlinear regression curve contained in GraphPad PRISM version 6 (GraphPad Software, Inc., La Jolla, CA, USA).

[2] = In vitro cytotoxicity, MTT assay, HepG2 cells; settings: human, 5 to 80 µM
Experimental: (§1) The toxicity of isolated compounds was assessed by a 3-(4,5-dimethythiazol2-yl)-2,5-diphenyl tetrazolium bromide (MTT) assay according to a previous method. Briefly, Vero cells, a normal mammalian cell line or HepG2 human hepatoma cell line, were seeded into 96-well plates (10^4 cell/ml) and incubated for 24 h at 37 °C with 5% CO2. Cells were then treated with various concentrations of the tested compounds ranging from 5 to 80 µM, and the final concentration of DMSO in the tested dilutions was not higher than 1% for 48 h at 37 °C with 5% CO2. Subsequently, MTT solution was added to each well, and the plate was incubated for 2 h in a CO2 incubator. The medium was then removed, and 100 µl of DMSO was added to each well. The negative control was performed using growth medium alone instead of the tested compounds, while doxorubicin (Sigma–Aldrich, New Delhi, India) was used as the positive toxic control. The assay was performed in triplicates. Finally, the optical density was determined using a microplate reader at a wavelength of 590 nm. The 50% cytotoxic concentration (CC50) was calculated using a nonlinear regression curve contained in GraphPad PRISM version 6 (GraphPad Software, Inc., La Jolla, CA, USA).

[3] = In vitro cytotoxicity, MTT assay, Vero cells; settings: African green monkey, 5 to 80 µM, read-out: CC50 Vero cell
Experimental: as §1

[4] = P. falciparum K1, pLDH assay, 72 h, mean ± S.D. of three determinations, read-out: IC50 K1

## O=c1c2ccc(O)cc2oc2cccc(O)c12 [Compound 8, 1,6-dihydroxyxanthone]
[1]; [4]
  IC50: 47900 ± 5160 nM
[2]
  CC50 at 48 h: > 80 µM
[3]
  CC50 at 48 h: > 80 µM

## CC(C)CC(=O)c1c2c(c3oc(=O)cc(-c4ccccc4)c3c1O)C=CC(C)(C)O2 [Compound 6, mammea A/AA cyclo D]
[1]; [4]
  IC50: 45600 ± 3120 nM
[2]; HepG2 cells
  CC50 at 48 h: > 80 µM
[3]; Vero cells
  CC50 at 48 h: > 80 µM

## O=c1c2ccccc2oc2c(O)cccc12 [Compound 3, 4-hydroxyxanthone]
[1]; K1, 72 h, read-out: IC50 K1
  IC50: 68600 ± 2540 nM
[2]
  CC50 at 48 h: 46.1 ± 1.66 µM
[3]
  CC50 at 48 h: 48.1 ± 1.68 µM

## O=c1c2ccccc2oc2ccc(O)cc12 [Compound 12, 2-hydroxyxanthone]
[1]; K1, 72 h, read-out: IC50 K1
  IC50: 75000 ± 880 nM
[2]
  CC50 at 48 h: > 80 µM
[3]
  CC50 at 48 h: > 80 µM

## C=C(C)[C@@H]1CC[C@]2(C)CC[C@]3(C)[C@H](CC[C@@H]4[C@@]5(C)CC[C@H](O)C(C)(C)[C@@H]5CC[C@]43C)[C@@H]12 [Compound 1, lupeol]
[1]; [4]
  IC50: 18800 ± 3450 nM
[2]; HepG2 cells
  CC50 at 48 h: 29.3 ± 1.47 µM
[3]; Vero cells
  CC50 at 48 h: > 80 µM

## O=c1c2cc(O)ccc2oc2cccc(O)c12 [Compound 4, 1,7-dihydroxyxanthone]
[1]; K1, 72 h, read-out: IC50 K1
  IC50: 41700 ± 2230 nM
[2]; HepG2 cells
  CC50 at 48 h: 13.3 ± 1.12 µM
[3]; Vero cells
  CC50 at 48 h: 7.9 ± 0.9 µM

## CC(C)CC(=O)c1c2c(c3oc(=O)cc(-c4ccccc4)c3c1O)C[C@H](C(C)(C)O)O2 [Compound 7, mammea A/AA cyclo F]
[1]; [4]
  IC50: 49890 ± 420 nM
[2]; HepG2 cells
  CC50 at 48 h: > 80 µM
[3]; Vero cells
  CC50 at 48 h: > 80 µM

## COc1cccc2oc3c(O)cccc3c(=O)c12 [Compound 11, 5-hydroxy-1-methoxyxanthone]
[1]; [4]
  IC50: 29300 ± 4440 nM
[2]; HepG2 cells
  CC50 at 48 h: > 80 µM
[3]; Vero cells
  CC50 at 48 h: > 80 µM

## C[C@H]1[C@H](OC(=O)CCC(=O)O)O[C@@H]2O[C@@]3(C)CC[C@H]4[C@H](C)CC[C@@H]1[C@@]24OO3 [Artesunate, reference compound]
[1]; P. falciparum K1, pLDH assay, 72 h, positive control, IC50 unit expressed in nM (footnote), read-out: IC50 K1 (positive control)
  IC50: 0.53 ± 0.04 nM

## COc1ccc2c(=O)c3cccc(O)c3oc2c1O [Compound 2, 4,5-dihydroxy-3-methoxyxanthone]
[1]; [4]
  IC50: 21000 ± 3560 nM
[2]; HepG2 cells
  CC50 at 48 h: > 80 µM
[3]; Vero cells
  CC50 at 48 h: > 80 µM

## COc1cc2c(=O)c3c(O)cccc3oc2c(OC)c1OC [Compound 9, 1-hydroxy-5,6,7-trimethoxyxanthone]
[1]; [4]
  IC50: 9570 ± 1590 nM
[2]; HepG2 cells
  CC50 at 48 h: > 80 µM
[3]; Vero cells
  CC50 at 48 h: > 80 µM

## O=c1c2cccc(O)c2oc2c(O)c(O)ccc12 [Compound 10, 3,4,5-trihydroxyxanthone]
[1]; [4]
  IC50: 15500 ± 2630 nM
[2]; HepG2 cells
  CC50 at 48 h: > 80 µM
[3]; Vero cells
  CC50 at 48 h: > 80 µM

## COc1ccc2c(=O)c3c(O)cccc3oc2c1O [Compound 13, 1,5-dihydroxy-6-methoxyxanthone]
[1]; [4]
  IC50: 22300 ± 1670 nM
[2]; HepG2 cells
  CC50 at 48 h: 30.5 ± 1.49 µM
[3]; Vero cells
  CC50 at 48 h: > 80 µM

## COc1cccc2c1C(=O)c1c(O)c3c(c(O)c1C2=O)C[C@@](O)(C(=O)CO)C[C@@H]3O[C@H]1C[C@H](N)[C@H](O)[C@H](C)O1 [Doxorubicin, reference compound]
[2]; HepG2 cells
  CC50 at 48 h: 1.11 ± 0.05 µM
[3]; Vero cells
  CC50 at 48 h: 1.46 ± 0.16 µM
